Values quoted from earlier work as cited in article PMC6024615, “Effect of Biliary Drainage on the Toxicity and Toxicokinetics of Amanita exitialis in Beagles” (Toxins, 2018).

What was measured:
[1] = intravenous injection, general anesthesia, radioactivity; cited from earlier work
Description: In previous studies, the radioactivity of labeled amatoxins in the serum of dogs or pigs was determined after an intravenous injection of amatoxins; bile was collected and measured using tubes tied to the bile duct under general anesthesia. More than 80% of 14C-methyl-γ-amanitin (14C-A) was eliminated in the urine, with less than 10% in the bile. Different toxin exposure patterns might result in different toxicokinetic data. 14C-A and 3H-O-methyl-dehydroxymethyl-α-amanitin (3H-A) were used for toxicokinetic studies in the animals; the animals were under general anesthesia du ...

[2] = human and rats; cited from earlier work
Description: Vesconi et al. found amatoxins were detectable in the serum of 65% patients within 30 h after ingestion of Amanita phalloides. In another study in patients intoxicated with Amanita phalloides, amatoxins were detectable in the plasma of most patients within 36 h after ingestion. […] These toxins were rapidly detected (30 min) in plasma and ...

14C-methyl-γ-amanitin
share eliminated in the bile [1]: less than 10%
share eliminated in the urine [1]: More than 80%

vitamin B12
reduction in absorption from the intestinal lumen caused by bile exclusion [2]: 50–60%
